In patent publication US9777020B2, “Furo-3-carboxamide derivatives and methods of use” (AbbVie Inc., priority 2014, dated 2017):

Target: TrkA (Homo sapiens (Human), UniProt P04629)
Assay: TrkA kinase HTRF enzyme inhibition assay
Assay type: biochemical
Conditions: TrkA pre-incubated with 200 μM ATP
Experimental: TrkA enzyme was obtained from Invitrogen (as catalog numbers PV3144, PV3616, and PV3617, respectively). Enzyme activity was measured in an HTRF® (homogeneous time resolved fluorescence) assay, which detects enzymatic phosphorylation of a biotinylated synthetic peptide substrate (an LCK peptide analog, biotin-ahx-[…], from Genemed Synthesis). Phosphorylation is assessed by HTRF® in the presence of an anti-phosphotyrosine antibody conjugated to Eu^3+ cryptate (Cisbio) as donor fluorophore, and streptavidin conjugated to allophycocyanin (ProZyme) as acceptor fluorophore. The HTRF® signal was detected at two different wavelengths (620 nm and 665 nm) which were used to calculate the fluorescence ratio.
TrkA enzyme was titrated to a concentration optimized to ensure accurate measurement of the initial reaction rate. To allow the TrkA enzyme to undergo activation and auto-phosphorylation, a 20 minute pre-incubation with ATP was carried out (at twice the final targeted enzyme and ATP concentration) prior to addition of test compound and the peptide substrate.
TrkA in vitro assays were performed by pre-incubating TrkA (2-10 nM) with ATP (200 μM) for 20 minutes at ambient temperature in 50 mM HEPES pH 7.4, 10 mM MgCl2, 2 mM MnCl2, 100 μM Na3VO4, 1 mM dithiothreitol, 0.01% BSA (bovine serum albumin). Then, to the activated Trk enzyme mixture was added the test compound in 2% dimethyl sulfoxide. After 10 minutes, the peptide substrate (125 nM) was added. After 1 hour, enzyme reactions were terminated by addition of equal reaction volumes of detection/stop reagent (containing 0.2 μg/mL anti-phosphotyrosine monoclonal antibody labeled with europium from Cisbio (catalog#PT66-K), and 4 μg/mL PhycoLink® Streptavidin-Allophycocyanin conjugate from ProZyme (catalog#PJ25S) in 60 mM EDTA in 40 mM HEPES pH 7.4, 480 mM KF, 0.01% Tween® 20 and 0.1% BSA bovine serum albumin) Reaction plates were stored at 4° C. overnight before reading the fluorescence ratio signal on a PerkinElmer EnVision™ fluorescence detector. Individual reaction wells were stopped at time points to obtain reaction rates. The test inhibitor compounds were assayed in duplicate, at half-log serial dilutions over a range of concentrations (e.g. starting at 50 μM or 5 μM as the high compound concentration). The percent Trk enzyme inhibition was calculated from the initial rates of the inhibited reactions relative to the uninhibited control. IC50 values were calculated by fitting the inhibition percent to the concentration of inhibitor [I] in the assay in equation 1 below, to solve for the IC50. Inhibition %=100[I]/([I]+[IC50]) equation 1

Sequence of TrkA (P04629 33-796): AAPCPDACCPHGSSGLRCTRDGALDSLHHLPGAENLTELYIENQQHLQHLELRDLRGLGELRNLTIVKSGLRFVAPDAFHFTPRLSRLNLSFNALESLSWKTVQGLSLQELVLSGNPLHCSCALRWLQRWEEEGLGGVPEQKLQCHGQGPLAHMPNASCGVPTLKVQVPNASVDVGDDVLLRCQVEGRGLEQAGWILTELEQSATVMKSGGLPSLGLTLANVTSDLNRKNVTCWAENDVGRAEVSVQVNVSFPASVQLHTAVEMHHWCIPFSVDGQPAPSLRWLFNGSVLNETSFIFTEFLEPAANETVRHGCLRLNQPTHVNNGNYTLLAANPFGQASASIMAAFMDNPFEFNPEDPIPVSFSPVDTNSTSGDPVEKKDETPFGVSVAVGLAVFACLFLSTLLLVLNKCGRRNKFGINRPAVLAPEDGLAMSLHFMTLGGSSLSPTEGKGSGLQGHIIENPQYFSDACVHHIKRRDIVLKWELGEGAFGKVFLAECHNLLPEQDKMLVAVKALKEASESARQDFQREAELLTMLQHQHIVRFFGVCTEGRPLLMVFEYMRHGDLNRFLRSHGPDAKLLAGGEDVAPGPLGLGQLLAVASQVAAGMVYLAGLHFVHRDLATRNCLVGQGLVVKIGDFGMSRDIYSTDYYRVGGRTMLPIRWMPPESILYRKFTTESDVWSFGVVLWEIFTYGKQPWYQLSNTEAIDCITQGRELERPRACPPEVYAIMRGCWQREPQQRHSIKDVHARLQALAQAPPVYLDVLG

Row | IC50 | Compound
1 | 5.3 nM | CCOc1nc(N2CCN(C(C)=O)CC2)ccc1NC(=O)c1coc2c1C(=O)N(CCOC)CC2 [Example 84, N-[6-(4-acetylpiperazin-1-yl)-2-ethoxypyridin-3-yl]-5-(2-methoxyethyl)-4-oxo-4,5,6,7-tetrahydrofuro[3,2-c]pyridine-3-carboxamide]
2 | 266 nM | COCCOc1nc(N2CCN(C(C)=O)CC2)ccc1NC(=O)c1coc2c1C(=O)N(CCOCc1ccccc1)CC2 [Example 85, N-[6-(4-acetylpiperazin-1-yl)-2-(2-methoxyethoxyl)pyridin-3-yl]-5-[2-(benzyloxy)ethyl]-4-oxo-4,5,6,7-tetrahydrofuro[3,2-c]pyridine-3-carboxamide]
3 | 1320 nM | CC(=O)N1CCN(c2ccc(NC(=O)c3coc4c3C(=O)N(CCOCc3ccccc3)CC4)c(OCCOCc3ccccc3)n2)CC1 [Example 86, N-{6-(4-acetylpiperazin-1-yl)-2-[2-(benzyloxy)ethoxy]pyridin-3-yl}-5-[2-(benzyloxy)ethyl]-4-oxo-4,5,6,7-tetrahydrofuro[3,2-c]pyridine-3-carboxamide]
4 | 224 nM | COCCOc1nc(N2CCN(C(C)=O)CC2)ccc1NC(=O)c1coc2c1C(=O)N(CCO)CC2 [Example 87, N-[6-(4-acetylpiperazin-1-yl)-2-(2-methoxyethoxyl)pyridin-3-yl]-5-(2-hydroxyethyl)-4-oxo-4,5,6,7-tetrahydrofuro[3,2-c]pyridine-3-carboxamide]
5 | 95 nM | CC(=O)N1CCN(c2ccc(NC(=O)c3coc4c3C(=O)N(CCO)CC4)c(OCCO)n2)CC1 [Example 88, N-[6-(4-acetylpiperazin-1-yl)-2-(2-hydroxyethoxyl)pyridin-3-yl]-5-(2-hydroxyethyl)-4-oxo-4,5,6,7-tetrahydrofuro[3,2-c]pyridine-3-carboxamide]
6 | 4.7 nM | CCOc1nc(N2CCN(C(C)=O)CC2)ccc1NC(=O)c1coc2c1C(=O)N(CCCO)CC2 [Example 89, N-[6-(4-acetylpiperazin-1-yl)-2-ethoxypyridin-3-yl]-5-(3-hydroxypropyl)-4-oxo-4,5,6,7-tetrahydrofuro[3,2-c]pyridine-3-carboxamide]
7 | 4.7 nM | CCOc1nc(N2CCN(C(C)=O)CC2)ccc1NC(=O)c1coc2c1C(=O)N(CCCCO)CC2 [Example 90, N-[6-(4-acetylpiperazin-1-yl)-2-ethoxypyridin-3-yl]-5-(4-hydroxybutyl)-4-oxo-4,5,6,7-tetrahydrofuro[3,2-c]pyridine-3-carboxamide]
8 | 7 nM | CCOc1nc(N2CCN(C(C)=O)CC2)ccc1NC(=O)c1coc2c1C(=O)N(CCOCCO)CC2 [Example 91, N-[6-(4-acetylpiperazin-1-yl)-2-ethoxypyridin-3-yl]-5-[2-(2-hydroxyethoxyl)ethyl]-4-oxo-4,5,6,7-tetrahydrofuro[3,2-c]pyridine-3-carboxamide]
9 | 18.2 nM | CCOc1nc(N2CCN(C(=O)OC(C)(C)C)CC2)ccc1NC(=O)c1coc2c1C(=O)NCC2 [Example 92, tert-butyl 4-(6-ethoxy-5-{[(4-oxo-4,5,6,7-tetrahydrofuro[3,2-c]pyridin-3-yl)carbonyl]amino}pyridin-2-yl)piperazine-1-carboxylate]
10 | 16.3 nM | CCOc1nc(N2CCN(C(=NC#N)NC)CC2)ccc1NC(=O)c1coc2c1C(=O)NCC2 [Example 93, N-{6-[4-(N′-cyano-N-methylcarbamimidoyl)piperazin-1-yl]-2-ethoxypyridin-3-yl}-4-oxo-4,5,6,7-tetrahydrofuro[3,2-c]pyridine-3-carboxamide]
11 | 1.5 nM | CCOc1nc(N2CCN(C(C)=O)CC2)ccc1NC(=O)c1coc2c1C(=O)N(C[C@@H](C)OC(C)=O)CC2 [Example 94, (2R)-1-[3-{[6-(4-acetylpiperazin-1-yl)-2-ethoxypyridin-3-yl]carbamoyl}-4-oxo-6,7-dihydrofuro[3,2-c]pyridin-5(4H)-yl]propan-2-yl acetate]
12 | 4.3 nM | CCOc1nc(N2CCN(C(C)=O)CC2)ccc1NC(=O)c1coc2c1C(=O)N(C[C@@H](C)O)CC2 [Example 95, N-[6-(4-acetylpiperazin-1-yl)-2-ethoxypyridin-3-yl]-5-[(2R)-2-hydroxypropyl]-4-oxo-4,5,6,7-tetrahydrofuro[3,2-c]pyridine-3-carboxamide]
13 | 6.7 nM | CCOc1nc(N2CCN(C(C)=O)CC2)ccc1NC(=O)c1coc2c1C(=O)N(C[C@H](C)OC(C)=O)CC2 [Example 96, (2S)-1-[3-{[6-(4-acetylpiperazin-1-yl)-2-ethoxypyridin-3-yl]carbamoyl}-4-oxo-6,7-dihydrofuro[3,2-c]pyridin-5(4H)-yl]propan-2-yl acetate]
14 | 4.8 nM | CCOc1nc(N2CCN(C(C)=O)CC2)ccc1NC(=O)c1coc2c1C(=O)N(C[C@H](C)O)CC2 [Example 97, N-[6-(4-acetylpiperazin-1-yl)-2-ethoxypyridin-3-yl]-5-[(2S)-2-hydroxypropyl]-4-oxo-4,5,6,7-tetrahydrofuro[3,2-c]pyridine-3-carboxamide]
15 | 1.5 nM | CCOc1nc(N2CCN(C(C)=O)CC2)ccc1NC(=O)c1coc2c1C(=O)N([C@H](C)COC(C)=O)CC2 [Example 98, (2R)-2-[3-{[6-(4-acetylpiperazin-1-yl)-2-ethoxypyridin-3-yl]carbamoyl}-4-oxo-6,7-dihydrofuro[3,2-c]pyridin-5(4H)-yl]propyl acetate]

More lines, now with the values behind:

Row | Compound | IC50
16 | Cc1n[nH]c2ccc(NC(=O)c3coc4c3C(=O)N(C)CC4)cc12 [Example 73, 5-methyl-N-(3-methyl-1H-indazol-5-yl)-4-oxo-4,5,6,7-tetrahydrofuro[3,2-c]pyridine-3-carboxamide] | 1080 nM
17 | Cc1cc2[nH]ncc2cc1NC(=O)c1coc2c1C(=O)N(C)CC2 [Example 74, 5-methyl-N-(6-methyl-1H-indazol-5-yl)-4-oxo-4,5,6,7-tetrahydrofuro[3,2-c]pyridine-3-carboxamide] | 2590 nM
18 | CN1CCc2occ(C(=O)Nc3nc4ccccc4s3)c2C1=O [Example 75, N-(1,3-benzothiazol-2-yl)-5-methyl-4-oxo-4,5,6,7-tetrahydrofuro[3,2-c]pyridine-3-carboxamide] | 2050 nM
19 | CN1CCc2occ(C(=O)Nc3ccc(C(F)(F)F)cn3)c2C1=O [Example 76, 5-methyl-4-oxo-N-[5-(trifluoromethyl)pyridin-2-yl]-4,5,6,7-tetrahydrofuro[3,2-c]pyridine-3-carboxamide] | 1530 nM
20 | CN1CCc2occ(C(=O)Nc3cc4cn[nH]c4cc3Cl)c2C1=O [Example 77, N-(6-chloro-1H-indazol-5-yl)-5-methyl-4-oxo-4,5,6,7-tetrahydrofuro[3,2-c]pyridine-3-carboxamide] | 367 nM
21 | Cc1nc2cc(NC(=O)c3coc4c3C(=O)N(C)CC4)ccc2[nH]1 [Example 78, 5-methyl-N-(2-methyl-1H-benzimidazol-5-yl)-4-oxo-4,5,6,7-tetrahydrofuro[3,2-c]pyridine-3-carboxamide] | 236 nM
22 | COc1cc(N2CCN(C(=O)CC(C)(C)C)CC2)ccc1NC(=O)c1coc2c1C(=O)NCC2 [Example 79, N-{4-[4-(3,3-dimethylbutanoyl)piperazin-1-yl]-2-methoxyphenyl}-4-oxo-4,5,6,7-tetrahydrofuro[3,2-c]pyridine-3-carboxamide] | 44.7 nM
23 | COc1cc(N2CCN(C(=O)N3CCCC3)CC2)ccc1NC(=O)c1coc2c1C(=O)NCC2 [Example 80, N-{2-methoxy-4-[4-(pyrrolidin-1-ylcarbonyl)piperazin-1-yl]phenyl}-4-oxo-4,5,6,7-tetrahydrofuro[3,2-c]pyridine-3-carboxamide] | 67.7 nM
24 | COc1cc(N2CCN(S(=O)(=O)N(C)C)CC2)ccc1NC(=O)c1coc2c1C(=O)NCC2 [Example 81, N-{4-[4-(dimethylsulfamoyl)piperazin-1-yl]-2-methoxyphenyl}-4-oxo-4,5,6,7-tetrahydrofuro[3,2-c]pyridine-3-carboxamide] | 65.8 nM
25 | COC(=O)c1ccc(Oc2nc(N3CCN(C)CC3)ccc2NC(=O)c2coc3c2C(=O)NCCC3)cc1 [Example 82, methyl 4-{[6-(4-methylpiperazin-1-yl)-3-{[(4-oxo-5,6,7,8-tetrahydro-4H-furo[3,2-c]azepin-3-yl)carbonyl]amino}pyridin-2-yl]oxy}benzoate] | 682 nM
26 | CN1CCN(c2ccc(NC(=O)c3coc4c3C(=O)NCCC4)c(Oc3ccc(CO)cc3)n2)CC1 [Example 83, N-{2-[4-(hydroxymethyl)phenoxy]-6-(4-methylpiperazin-1-yl)pyridin-3-yl}-4-oxo-5,6,7,8-tetrahydro-4H-furo[3,2-c]azepine-3-carboxamide] | 496 nM
